Test results from patent US20230416262A1, “TRPML MODULATORS” (Casma Therapeutics, Inc., priority 2020, published 2023).

Experiments:
[1] = tested on: TFEB; experiment: TFEB nuclear translocation assay; type: cell-based; conditions: Homo sapiens; HeLa wt or HeLa TRPML1 KO cells, treated for 2 hrs; ratio of nuclear to ring-region TFEB intensity
How it was run: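 HeLa wild-type or TRPML1 KO cells treated 2 h with compound at 37 °C, PFA-fixed, immunostained for TFEB (Alexa 488) with Hoechst nuclei. Imaged at ×20, four fields/well. Value is ratio of nuclear to perinuclear-ring TFEB intensity, with nuclei counts.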

[2] = tested on: THP-1 cells; experiment: Lamp1 lysosomal exocytosis assay; type: cell-based; conditions: Homo sapiens, 55 min, 55 min incubation, top dose 20 μM
Description: For the Lamp1 lysosomal exocytosis assay, a human monocytic suspension cell line (THP-1) was used. Cells in culture should be used between a density of […] and 1.2e6/mL on the day of the assay. For each 96-well assay plate to be used, pellet 11e6 THP-1 cells at 330×g for 5 min in a 50 mL conical tube, aspirate media and resuspend in 22 mLs of RPMI 1640/10% FBS media for a final cell concentration of 5e5/mL. Prior to addition of cells to the assay plate, perform a 7 pt dilution curve using a top dose of compound at 2 mM and use a 3-fold serial dilution, the 8th point is DMSO only. Final top dose of compound in the assay was 20 μM. 2 μL of each serial dilution was transferred to a new 96-well v-bottom assay plate. 198 μL of cells (1e5 total cells/well) was prepared as above in each well of the assay plate and incubated at 37° C./5% CO2/95% RH for 55 min. After the 55 min incubation, cells were pelleted for 5 min at 4 C at 400×g in a tabletop centrifuge. The media was separated from the cell pellets in the plate. The pellets were washed using 200 μL ice cold buffer (PBS Ca^++/Mg^++ containing 2% final BSA and 80 μM final Dynasore). Cells were pelleted again at 400×g-5 min in a 4° C. tabletop centrifuge. Buffer was separated from cells. Each well was suspended in 75 uL Lamp1-PE antibody buffer (PBS Ca^++/Mg^++ containing 2% final BSA with 80 uM final Dynasore and 1:800 final dilution of Lamp 1-PE labeled antibody). After a 45 min antibody incubation on ice, 25 μL of sytox green was added (I drop/mL buffer), and each well was mixed and incubated for an additional 15 min on ice. After the 15 min sytox green incubation, 100 μL of ice-cold buffer (PBS Ca^++/Mg^++ containing 2% final BSA and 80 uM final Dynasore) was added and cells were pelleted for 5 min at 400×g. The buffer was removed and each sample was resuspended in 100 uL of ice-cold buffer (PBS Ca^++/Mg^++ containing 2% final BSA and 80 μM final Dynasore). FACs gating strategy: FACS analyze for sytox green (A488) and Lamp1-PE (DsRed). First gate against FSC-A/SSC-A to find non-fragmented or ‘live’ THP-1 cells. Next gate against FITC-A/FSC-A to omit sytox green positive cells. Then gate for FSC-A/FSC-H to remove any doublet cells. The last gate was a histogram for PE. The statistics for ‘count’ and ‘geometric mean fluorescence intensity’ (gWFI) for PE were repoted on the last gate.
Compounds having an activity designated as “++++” provided an exocytosis readout of ≤0.50 μM; compounds having an activity designated as “+++” provided an exocytosis readout of 0.51-1.00 μM; compounds having an activity designated as “++” provided an exocytosis readout of 1.01-5.00 μM; and compounds having an activity designated as “+” provided an exocytosis readout of ≥5.01 μM

EC50 [1] [µM] | EC50 [2] [µM] | Compound
≤ 2 | ≥ 5.01 | O=C(OCc1ccccc1)N1CCC2(CC1)CN(S(=O)(=O)c1ccc(C3CC3)cc1)c1ccccc12 [Compound I-188, benzyl 1-((4-cyclopropylphenyl)sulfonyl)spiro[indoline-3,4′-piperidine]-1′-carboxylate]
≤ 2 | ≥ 5.01 | Cc1cnc2c(c1)N(S(=O)(=O)c1ccc(S(=N)(=O)N(C)C)cc1)CC21CCCCC1 (stereo not shown) [Compound I-157, N,N-dimethyl-4-({6′-methyl-1′,2′-dihydrospiro[cyclohexane-1,3′-pyrrolo[3,2-b]pyridin]-1′-yl}sulfonyl)benzene-1-sulfonoimidamide]
≤ 2 | ≥ 5.01 | O=C(OCc1ccccc1)N1CCC2(CC1)CN(S(=O)(=O)Cc1ccccc1)c1ccccc12 [Compound I-80, benzyl 1-(benzylsulfonyl)spiro[indoline-3,4′-piperidine]-1′-carboxylate]
2.01 to 8 | ≥ 5.01 | CN(C)S(=O)(=O)c1ccc(S(=O)(=O)N2CC3(CN(CC4CCOCC4)C3)c3ccccc32)cc1 [Compound I-101, N,N-dimethyl-4-({1-[(oxan-4-yl)methyl]-1′,2′-dihydrospiro[azetidine-3,3′-indol]-1′-yl}sulfonyl)benzene-1-sulfonamide]
≥ 10 | ≥ 5.01 | Cc1nn2c(c1C)N(S(=O)(=O)c1ccc(S(=O)(=O)N(C)C)cc1)CC21CCCCC1 [Compound I-154, 4-({6′,7′-dimethyl-1′,2′-dihydrospiro[cyclohexane-1,3′-pyrazolo[1,5-a]imidazol]-1′-yl}sulfonyl)-N,N-dimethylbenzene-1-sulfonamide]
≤ 2 | ≥ 5.01 | CC1(C)COc2ccc(S(=O)(=O)N3CC4(CCCCC4)c4ccccc43)cc21 [Compound I-94, 1′-[(3,3-dimethyl-2,3-dihydro-1-benzofuran-5-yl)sulfonyl]-1′,2′-dihydrospiro[cyclohexane-1,3′-indole]]
≤ 2 | ≤ 0.5 | O=C(OCc1ccccc1)N1CCC2(CC1)CN(S(=O)(=O)c1ccc(C(F)F)cc1)c1cccc(F)c12 [Compound I-130, benzyl 1-[4-(difluoromethyl)benzenesulfonyl]-4-fluoro-1,2-dihydrospiro[indole-3,4′-piperidine]-1′-carboxylate]
2.01 to 8 | ≥ 5.01 | O=C(Nc1ccc2c(c1)OCO2)N1CCC2(CC1)CN(S(=O)(=O)c1ccc(C(F)F)cc1)c1ccccc12 [Compound I-220, N-(benzo[d][1,3]dioxol-5-yl)-1-((4-(difluoromethyl)phenyl)sulfonyl)spiro[indoline-3,4′-piperidine]-1′-carboxamide]
2.01 to 8 | ≥ 5.01 | Cc1cccc(S(=O)(=O)N2CC3(CCCC3)c3ccccc32)c1 [Compound I-74, 1′-(3-methylbenzenesulfonyl)-1′,2′-dihydrospiro[cyclopentane-1,3′-indole]]
2.01 to 8 | ≥ 5.01 | O=C(Nc1cccc(C(F)F)c1)N1CCC2(CC1)CN(S(=O)(=O)c1ccc(C(F)F)cc1)c1ccccc12 [Compound I-221, N-(3-(difluoromethyl)phenyl)-1-((4-(difluoromethyl)phenyl)sulfonyl)spiro[indoline-3,4′-piperidine]-1′-carboxamide]
 | ≥ 5.01 | O=C(NCC1CC1)C1CCC2(CC1)CN(S(=O)(=O)c1ccc(C(F)F)cc1)c1ccccc12 (stereo not shown) [Compound I-236, N-(cyclopropylmethyl)-1′-((4-(difluoromethyl)phenyl)sulfonyl)spiro[cyclohexane-1,3′-indoline]-4-carboxamide]
 | ≥ 5.01 | O=C(NCc1ccccn1)C1CCC2(CC1)CN(S(=O)(=O)c1ccc(C(F)F)cc1)c1ccccc12 (stereo not shown) [Compound I-231, 1′-((4-(difluoromethyl)phenyl)sulfonyl)-N-(pyridin-2-ylmethyl)spiro[cyclohexane-1,3′-indoline]-4-carboxamide]
 | ≤ 0.5 | O=C(OCc1ccccc1)N1CCC2(CC1)CN(S(=O)(=O)c1ccc(C(F)F)cc1)c1cnccc12 [Compound I-135, benzyl 1′-[4-(difluoromethyl)benzenesulfonyl]-1′,2′-dihydrospiro[piperidine-4,3′-pyrrolo[2,3-c]pyridine]-1-carboxylate]
 | ≥ 5.01 | O=C(Nc1cnsc1)N1CCC2(CC1)CN(S(=O)(=O)c1ccc(C(F)F)cc1)c1ccccc12 [Compound I-202, 1-((4-(difluoromethyl)phenyl)sulfonyl)-N-(isothiazol-4-yl)spiro[indoline-3,4′-piperidine]-1′-carboxamide]
 | ≥ 5.01 | O=C(NC1CCS(=O)(=O)CC1)N1CCC2(CC1)CN(S(=O)(=O)c1ccc(C(F)F)cc1)c1ccccc12 [Compound I-224, 1-((4-(difluoromethyl)phenyl)sulfonyl)-N-(1,1-dioxidotetrahydro-2H-thiopyran-4-yl)spiro[indoline-3,4′-piperidine]-1′-carboxamide]
 | ≥ 5.01 | O=C(C1CCC2(CC1)CN(S(=O)(=O)c1ccc(C(F)F)cc1)c1ccccc12)N1CCOCC1 (stereo not shown) [Compound I-238, (1′-((4-(difluoromethyl)phenyl)sulfonyl)spiro[cyclohexane-1,3′-indolin]-4-yl)(morpholino)methanone]
 | ≥ 5.01 | Cc1nn(C)c(C)c1NC(=O)N1CCC2(CC1)CN(S(=O)(=O)c1ccc(C(F)F)cc1)c1ccccc12 [Compound I-217, 1-((4-(difluoromethyl)phenyl)sulfonyl)-N-(1,3,5-trimethyl-1H-pyrazol-4-yl)spiro[indoline-3,4′-piperidine]-1′-carboxamide]
 | ≥ 5.01 | CCOCCNC(=O)N1CCC2(CC1)CN(S(=O)(=O)c1ccc(C(F)F)cc1)c1ccccc12 [Compound I-196, 1-((4-(difluoromethyl)phenyl)sulfonyl)-N-(2-ethoxyethyl)spiro[indoline-3,4′-piperidine]-1′-carboxamide]
 | ≥ 5.01 | O=C(CCC1CCCO1)N1CCC2(CC1)CN(S(=O)(=O)c1ccc(C(F)F)cc1)c1ccccc12 (stereo not shown) [Compound I-252, 1-(1-((4-(difluoromethyl)phenyl)sulfonyl)spiro[indoline-3,4′-piperidin]-1′-yl)-3-(tetrahydrofuran-2-yl)propan-1-one]
 | ≥ 5.01 | CC(C)NC(=O)N1CCC2(CC1)CN(S(=O)(=O)c1ccc(C(F)F)cc1)c1ccccc12 [Compound I-192, 1-((4-(difluoromethyl)phenyl)sulfonyl)-N-isopropylspiro[indoline-3,4′-piperidine]-1′-carboxamide]
 | ≥ 5.01 | CN(Cc1ccon1)C(=O)C1CCC2(CC1)CN(S(=O)(=O)c1ccc(C(F)F)cc1)c1ccccc12 (stereo not shown) [Compound I-242, 1′-((4-(difluoromethyl)phenyl)sulfonyl)-N-(isoxazol-3-ylmethyl)-N-methylspiro[cyclohexane-1,3′-indoline]-4-carboxamide]
 | ≥ 5.01 | O=C(NCc1ccccc1)C1CCC2(CC1)CN(S(=O)(=O)c1ccc(C(F)F)cc1)c1ccccc12 (stereo not shown) [Compound I-143, N-benzyl-1′-((4-(difluoromethyl)phenyl)sulfonyl)spiro[cyclohexane-1,3′-indoline]-4-carboxamide]
 | ≥ 5.01 | O=C(OCc1ccncc1)N1CCC2(CC1)CN(S(=O)(=O)c1ccc(C(F)F)cc1)c1ccccc12 [Compound I-159, pyridin-4-ylmethyl 1-((4-(difluoromethyl)phenyl)sulfonyl)spiro[indoline-3,4′-piperidine]-1′-carboxylate]
 | 1.01 to 5 | Cn1cc(COC(=O)N2CCC3(CC2)CN(S(=O)(=O)c2ccc(C(F)F)cc2)c2ccccc23)cn1 [Compound I-176]
 | ≥ 5.01 | O=C(Nc1cncc(F)c1)N1CCC2(CC1)CN(S(=O)(=O)c1ccc(C(F)F)cc1)c1ccccc12 [Compound I-210, 1-((4-(difluoromethyl)phenyl)sulfonyl)-N-(5-fluoropyridin-3-yl)spiro[indoline-3,4′-piperidine]-1′-carboxamide]

Compound | EC50 [1] [µM] | EC50 [2] [µM]
O=S(=O)(c1ccc(C(F)F)cc1)N1CC2(CCN(Cc3ccccn3)CC2)c2ccccc21 [Compound I-164] | ≤ 2 | ≥ 5.01
